Test results as given in EPA's ToxValDB 9.5.
“And” between values parts separate entries of the source, which are not always exact repeats. Equal values may be shown once.

System: Rattus norvegicus
Conditions: for LD50 / LC50: acute
[1] = subchronic, duration: 90 days, oral, gavage, Sprague-Dawley
[2] = reproduction developmental, duration: 103 weeks, oral, drinking water, generation: F0
[3] = reproduction developmental, duration: 104 weeks, oral, drinking water
[4] = reproduction developmental, duration: 59 days, oral, drinking water
[5] = subchronic, duration: 90 days, oral, diet, Sprague-Dawley

Structure (SMILES): Cc1cc(N(C)C)ccc1[P+](=O)[O-].[Na+]
- NOAEL (reproduction developmental, duration: 14 days, injection, subcutaneous, F, Wistar): 50 mg/kg-day

Structure (SMILES): CCCCCCCCCCCCOCCOS(=O)(=O)[O-].[Na+]
- LD50 (oral): 1600 mg/kg

Structure (SMILES): CCN(CC)c1ccc2c(c1)Oc1cc(C)c(Nc3ccc(C)cc3C)cc1C21OC(=O)c2ccccc21 (centres undefined)
- LD50 (dermal, semiocclusive, Sprague-Dawley): > 2000 mg/kg
- LD50 (oral, gavage, Sprague-Dawley): > 10000 mg/kg

Structure (SMILES): CCN(CC)c1ccc2c(c1)Oc1cc(C)c(Nc3ccccc3)cc1C21OC(=O)c2ccccc21 (centres undefined)
- LD50 (oral, gavage, Sprague-Dawley): > 2000 mg/kg

Structure (SMILES): CC(O)CN(CCN(CC(C)O)CC(C)O)CC(C)O (centres undefined) [1,1',1'',1'''-(Ethylenedinitrilo)tetrakis(2-propanol)]
- LD50 (oral, gavage): 11200 mg/kg
- NOAEL (subchronic, duration: 3 months, oral, diet, Harlan): ≥ 600 mg/kg-day and ≤ 900 mg/kg-day

Structure (SMILES): Clc1cccc(Cl)c1 [1,3-Dichlorobenzene]
- LD50 (oral, gavage, Sprague-Dawley): 1200 mg/kg and 1100 mg/kg and 1000 mg/kg
- NOAEL (reproduction developmental, duration: 10 days, oral, gavage, F, Sprague-Dawley): 200 mg/kg-day
- NOAEL (reproduction developmental, duration: 10 days, oral, gavage, Sprague-Dawley, generation: F1): 200 mg/kg-day
- NOAEL (reproduction developmental, duration: 90 days, oral, gavage, Sprague-Dawley, generation: F0): 147 mg/kg-day
- LOAEL [1]: 147 mg/kg-day
- NOAEL [1]: 37 mg/kg-day

Structure (SMILES): OCCN1CCNCC1 [1-Piperazineethanol]
- LD50 (oral, gavage): 2000 mg/kg
- NOAEL (short-term, duration: 7 days, oral, diet, F, Wistar): 1610 mg/kg-day
- NOAEL (short-term, duration: 7 days, oral, diet, M, Wistar): 3720 mg/kg-day

Structure (SMILES): CC(C)(C)c1ccc(O)c(C(C)(C)C)c1 [2,4-Di-tert-butylphenol]
- LD50 (oral, gavage, albino): 1500 mg/kg and 1300 mg/kg and 2100 mg/kg

Structure (SMILES): CCN(CC#N)c1cccc(C)c1 [2-(Ethyl(3-methylphenyl)amino)acetonitrile]
- NOAEL (developmental, duration: 38 days, oral, gavage, Sprague-Dawley): 150 mg/kg-day
- NOAEL (reproduction developmental, duration: 38 days, oral, gavage, Sprague-Dawley, generation: F0): 25 mg/kg-day
- NOAEL (reproduction developmental, duration: 38 days, oral, gavage, Sprague-Dawley, generation: F1): 150 mg/kg-day

Structure (SMILES): CC(CN)CCCN (centres undefined) [2-Methylpentanediamine]
- LC50 (inhalation, CRL:CD BR): 4.1 µg/mL and 2.9 µg/mL
- LD50 (oral, gavage, Crl:CD(SD)): 1690 mg/kg
- NOAEL (short-term, duration: 28 days, oral, diet, F, CRL:CD BR): 3000 ppm
- NOAEL (short-term, duration: 28 days, oral, diet, M, CRL:CD BR): 10000 ppm

Structure (SMILES): CCN(CC)c1ccc(C(=O)c2ccccc2C(=O)O)c(O)c1 [2-[4-(Diethylamino)-2-hydroxybenzoyl]benzoic acid]
- LD50 (oral, gavage, Sprague-Dawley): > 5000 mg/kg

Structure (SMILES): CC(C)(c1ccccc1)c1ccc(O)cc1 [4-Cumylphenol]
- LD50 (oral, Sprague-Dawley): 1770 mg/kg
- LD50 (oral, gavage, Sprague-Dawley): 1770 mg/kg

Structure (SMILES): COc1ccc(O)cc1 [4-Methoxyphenol]
- NOAEL (developmental, dermal): 40 mg/kg-day
- NOAEL (reproduction developmental, dermal, F): 40 mg/kg-day

Structure (SMILES): CCCCCCC1C=CC(CCCCCCCC(=O)O)CC1C(=O)O (centres undefined) [5(6)-Carboxy-4-hexyl-2-cyclohexene-1-octanoic acid]
- LD50 (oral, gavage, Sprague-Dawley): 6180 mg/kg

Structure (SMILES): O=c1c2ccccc2[nH]c2cc3c(=O)c4ccccc4[nH]c3cc12 [5,12-Dihydroquino[2,3-b]acridine-7,14-dione]
- LC50 (inhalation, Crl:CD(SD)): ≥ 3.1 µg/mL
- LD50 (oral, gavage, albino): ≥ 7500 mg/kg

Structure (SMILES): CCCCCCCC/C=C\CCCCCCCC#N [(Z)-9-Octadecenenitrile]
- LD50 (oral, gavage, Sprague-Dawley): > 5000 mg/kg

Structure (SMILES): CCCCCCCC/C=C\CCCCCCCCN [(Z)-9-Octadecenylamine]
- LD50 (oral, gavage, Sprague-Dawley): 1180 mg/kg and 1690 mg/kg

Structure (SMILES): CCCC [Butane]
- NOAEL (reproduction developmental, inhalation, Sprague-Dawley): 21400 mg/m3

Structure (SMILES): O=C(Cl)C(Cl)Cl [Dichloroacetyl chloride]
- LD50 (oral): 2460 mg/kg
- NOAEL (subchronic, duration: 30 days, inhalation, Sprague-Dawley): 6.03 mg/m3

Structure (SMILES): COC [Dimethyl ether]
- LC50 (inhalation, Sprague-Dawley): 309000 mg/m3

Structure (SMILES): CC(COCC(C)OC(=O)c1ccccc1)OC(=O)c1ccccc1 (centres undefined) [Dipropylene glycol, dibenzoate]
- LD50 (dermal, Sprague-Dawley): > 2000 mg/kg
- LD50 (oral, Sprague-Dawley): 5070 mg/kg and 3300 mg/kg and 3910 mg/kg
- NOAEL (developmental, duration: 13 days, oral, gavage, Sprague-Dawley): 500 mg/kg-day and 250 mg/kg-day
- NOAEL (reproduction developmental, duration: 38 weeks, oral, diet, Sprague-Dawley, generation: F0): 10000 ppm
- NOAEL (reproduction developmental, duration: 38 weeks, oral, diet, Sprague-Dawley, generation: F1): 10000 ppm
- NOAEL (reproduction developmental, duration: 13 days, oral, gavage, F, Sprague-Dawley): 1000 mg/kg-day
- NOAEL (subchronic, duration: 13 weeks, oral, diet): 1000 mg/kg-day

Structure (SMILES): C1CCCNCC1 [Hexamethyleneimine]
- LD50 (oral, gavage, Sprague-Dawley): 9.6 mg/kg and ≥ 8 mg/kg and ≤ 11.4 mg/kg

Structure (SMILES): CS(=O)(=O)O [Methanesulfonic acid]
- LD50 (oral): ≥ 200 mg/kg and ≤ 400 mg/kg

Structure (SMILES): COC(=O)CC(C)=O [Methyl acetoacetate]
- NOAEL (developmental, oral, gavage, Crj:CD(SD)): > 1000 mg/kg-day
- NOAEL (short-term, duration: 4 weeks, oral, gavage, F, Sprague-Dawley): 1000 mg/kg-day
- NOAEL (short-term, duration: 4 weeks, oral, gavage, M, Sprague-Dawley): 1000 mg/kg-day

Structure (SMILES): O=c1[n-]c(=O)[nH]c(=O)[nH]1.[Na+] [Monosodium cyanurate]
- NOAEL (developmental, duration: 103 weeks, oral, drinking water): 5380 ppm
- NOAEL (developmental, duration: 10 days, oral, gavage, COBSCD (Charles River)): > 5000 mg/kg-day
- NOAEL (reproduction developmental, duration: 13 weeks, oral, drinking water): ≥ 5380 ppm
- LOAEL [2]: 5380 ppm
- NOAEL [2]: 1200 ppm
- NOAEL (reproduction developmental, duration: 103 weeks, oral, drinking water, generation: F1): 5380 ppm
- NOAEL (reproduction developmental, duration: 103 weeks, oral, drinking water, generation: F2): 5380 ppm
- LOAEL [3]: 5380 ppm
- NOAEL [3]: 2400 ppm
- NOAEL (reproduction developmental, duration: 10 days, oral, gavage, F, COBSCD (Charles River)): > 5000 mg/kg-day
- LOAEL [4]: ≥ 2000 ppm
- NOAEL [4]: ≥ 400 ppm and ≤ 1200 ppm

Structure (SMILES): CCC(C)Nc1ccc(NC(C)CC)cc1 (centres undefined) [N,N'-Bis(1-methylpropyl)-1,4-benzenediamine]
- LC50 (inhalation, Sprague-Dawley): > 0.2 µg/mL
- LOAEL (short-term, duration: 28 days, oral, gavage, Sprague-Dawley): 10 mg/kg-day
- LOAEL [5]: 500 mg/kg-day
- NOAEL [5]: 100 mg/kg-day

Structure (SMILES): COc1ccccc1NC(=O)CC(C)=O [N-(2-Methoxyphenyl)-3-oxobutanamide]
- LD50 (oral, gavage, Crj:CD): 1640 mg/kg

Structure (SMILES): CCCCNS(=O)(=O)c1ccccc1 [N-Butylbenzenesulfonamide]
- LC50 (Inhalation, Wistar): > 4070 mg/m3

Structure (SMILES): O=C([O-])CCCCCCCC(=O)[O-].[Li+].[Li+] [Nonanedioic acid, dilithium salt]
- NOAEL [1]: 1000 mg/kg-day
